Assay results reported in patent US7655420B2, “Methods to increase or decrease bone density” (Celltech R & D, Inc., priority 2002, dated 2010).
“Also recorded” adds a separate entry of the source.

System: SOST expression
Assay: BMP-6 induction of SOST expression in hMSC cells with test compounds (RT-PCR)
Type: cell-based, human
Conditions: for Results (effect on BMP-6 induction of SOST expression): BMP-6, 72 hrs; for induction of SOST expression by BMP-6 (BMP-induced SOST expression): 72 hrs, no single concentration stated in the sentence
Method: The previous example illustrates that SOST expression was enhanced by bone morphogenetic proteins and modulated by steroids such as dexamethasone. In this example, human MSC cells were incubated with bone morphogenetic proteins in the presence of various test agents to determine whether other steroids and compounds could affect the BMP-induction of SOST. SOST expression was monitored by reverse transcriptase polymerase chain reaction (RT-PCR).
Human mesenchymal cells (hMSCs) were plated in regular growth media containing 2% FCS and treated with BMP-6 either alone or in combination with the test compounds. The cells were harvested 72 hrs later and RNA was prepared for RT-PCR analysis of SOST expression.

## CC(=O)S[C@@H]1CC2=CC(=O)CC[C@]2(C)[C@H]2CC[C@@]3(C)[C@@H](CC[C@@]34CCC(=O)O4)[C@H]12 [Spironolactone]
Compound at 1 × 10^−6 M
  Results (effect on BMP-6 induction of SOST expression): No Effect
Compound at 1 × 10^−7 M
  Results (effect on BMP-6 induction of SOST expression): No Effect

## CC[C@H](C)C(=O)O[C@H]1C[C@@H](C)C=C2C=C[C@H](C)[C@H](CC[C@@H]3C[C@@H](O)CC(=O)O3)[C@H]21 [Lovastatin/Mevinolin, Lovastatin]
Compound at 1 × 10^−7 M
  Results (effect on BMP-6 induction of SOST expression): No Effect
Compound at 1 × 10^−7 M, listed as lovastatin
  Results (effect on BMP-6 induction of SOST expression): minimal effects

## O=C1C=C(S(=O)(=O)O)c2ccccc2C1=O [1,2-napthoquinone-4-sulfate]
Compound at 1 × 10^−6 M
  Results (effect on BMP-6 induction of SOST expression): No Effect
Compound at 5 × 10^−6 M
  Results (effect on BMP-6 induction of SOST expression): No Effect

## Parathyroid Hormone (1-34): Calciotrophic Peptide (SVSEIQLMHNLGKHLNSMERVEWLRKKLQDVHNF; Parathyroid hormone; UniProt P01270 32-65, looked up, fragment)
Compound at 1 × 10^−7 M
  Results (effect on BMP-6 induction of SOST expression): No Effect

## CCCCC[C@H](O)/C=C/[C@H]1[C@H](O)CC(=O)[C@@H]1C/C=C\CCCC(=O)O [Prostaglandin E2]
  induction of SOST expression by BMP-6 (BMP-induced SOST expression): blocks
Compound at 1 × 10^−6 M
  Results (effect on BMP-6 induction of SOST expression): Inhibition
Compound at 1 × 10^−6 M, listed as PGE2
  Results (effect on BMP-6 induction of SOST expression): blocked
Compound at 1 × 10^−6 M, listed as prostaglandin E2
  Results (effect on BMP-6 induction of SOST expression): effectively blocked
Compound at 1 × 10^−7 M
  Results (effect on BMP-6 induction of SOST expression): Inhibition

## CCc1[nH]c(-c2ccc(OC)cc2)nc1-c1ccncc1 [SB202474]
Compound at 2 × 10^−6 M
  Results (effect on BMP-6 induction of SOST expression): No Effect

## C[C@]12C=CC(=O)C=C1CC[C@H]1[C@@H]3C[C@@H](O)[C@](O)(C(=O)CO)[C@@]3(C)C[C@H](O)[C@@]12F [Triamcinolone]
  induction of SOST expression by BMP-6 (BMP-induced SOST expression): blocks
Compound at 1 × 10^−7 M
  Results (effect on BMP-6 induction of SOST expression): blocked; also recorded: Inhibition
Compound at 1 × 10^−7 M, listed as triamcinolone
  Results (effect on BMP-6 induction of SOST expression): blocked

## C[S+]([O-])c1ccc(-c2nc(-c3ccncc3)c(-c3ccc(F)cc3)[nH]2)cc1 (centres unmarked) [SB203580]
Compound at 2 × 10^−6 M
  Results (effect on BMP-6 induction of SOST expression): No Effect

## CC1(C)O[C@@H]2C[C@H]3[C@@H]4C[C@H](F)C5=CC(=O)C=C[C@]5(C)[C@@]4(F)[C@@H](O)C[C@]3(C)[C@]2(C(=O)CO)O1 [Fluocinolone acetonide]
  induction of SOST expression by BMP-6 (BMP-induced SOST expression): blocks
Compound at 1 × 10^−7 M
  Results (effect on BMP-6 induction of SOST expression): Inhibition
Compound at 1 × 10^−7 M, listed as Fluo
  Results (effect on BMP-6 induction of SOST expression): blocked
Compound at 1 × 10^−7 M, listed as fluocinolone acetonide
  Results (effect on BMP-6 induction of SOST expression): effectively blocked

## C[C@H](CCC(=O)NCCS(=O)(=O)O)[C@H]1CC[C@H]2[C@@H]3[C@@H](O)C[C@@H]4C[C@H](O)CC[C@]4(C)[C@H]3CC[C@]12C [Tauroursodeoxycholic acid]
Compound at 2 × 10^−6 M
  Results (effect on BMP-6 induction of SOST expression): No Effect
Compound at 2 × 10^−6 M, listed as tauroursodeoxycholic acid
  Results (effect on BMP-6 induction of SOST expression): minimal effects
Compound at 2 × 10^−7 M
  Results (effect on BMP-6 induction of SOST expression): No Effect

## COc1cccc(-c2cc(=O)c3ccccc3o2)c1N [PD98059]
Compound at 2 × 10^−6 M
  Results (effect on BMP-6 induction of SOST expression): No Effect

## C[C@]12CC[C@@H]3c4ccc(O)cc4C[C@@H](CCCCCCCCC[S+]([O-])CCCC(F)(F)C(F)(F)F)[C@H]3[C@@H]1CC[C@@H]2O (some centres unmarked) [ICI 182,780]
Compound at 1 × 10^−6 M
  Results (effect on BMP-6 induction of SOST expression): minimal effects; also recorded: No Effect
